Measurements published in paper PMC9415608, “Design, Synthesis and Biological Investigation of 2-Anilino Triazolopyrimidines as Tubulin Polymerization Inhibitors with Anticancer Activities” (Pharmaceuticals, 2022).
Read-outs that look alike come from different tables or passages of the source.

Legend:
[1] = test system: MDA-MB-231, HeLa, A549 and HT-29 cancer cell lines; test: Antiproliferative activity stated across the panel of cancer cell lines; assay type: cell-based, human; conditions: for IC50: Homo sapiens
Protocol: (§1) All the cell lines used in this paper were of human origin and purchased from the American Type Culture Collection (ATCC, Manassas, VA, USA). Colon adenocarcinoma (HT-29), non-small cell lung carcinoma (A549), cervix carcinoma (HeLa) and breast adenocarcinoma (MDA-MB-231) cells were grown in RPMI (HT29) or DMEM (A549, HeLa, MDA-MB-231) medium (Gibco, Milano, Italy). Both media were supplemented with 115 units/mL of penicillin G (Gibco, Milano, Italy), 115 μg/mL of streptomycin (Invitrogen, Milano, Italy) and 10% fetal bovine serum (Invitrogen, Milano, Italy). All cell lines were grown at 37 °C in a humidified 5% CO2 atmosphere. The cells were grown in 2 mL of complete medium.
(§2) Stock solutions were prepared for each compound by dissolving in DMSO at the final concentration of 10 mM.
(§3) The cells were seeded in 96-well plates at the appropriate density for each cell line. The respective cell line densities used for the antiproliferative assay were HeLa and HT29 5000 cells/well, A549 4000 cells/well and MDA-MB-231 7000 cells/well. The total volume of medium was 100 µL. After 24 h, the cells were treated by performing serial 5-fold dilutions of the tested compounds starting from a concentration of 10 μM. All experimental conditions were tested in triplicate for statistical analysis. After 72 h of incubation, 10 μL of 100 μg/mL resazurin solution was added to each well and the plate was re-incubated for 3–4 h. The fluorescence of the wells in each plate was monitored using a Spark 10M spectrophotometer (Tecan Group Ltd., Mannedorf, Switzerland) with a 535 nm excitation wavelength and a 600 nm emission wavelength.

[2] = test system: Bovine brain tubulin; test: Inhibition of [3H]colchicine binding to tubulin; conditions: tubulin 0.5 µM, [3H]colchicine 5 µM, tested compound 5 µM
Protocol: (§4) Bovine brain tubulin was purified as described previously. To evaluate the effects of the compounds on tubulin assembly in vitro [80], varying concentrations were preincubated with 10 μM tubulin in 0.8 M monosodium glutamate (pH 6.6) at 30 °C and the reaction mixtures then cooled to 0 °C. After addition of GTP, the mixtures were transferred to 0 °C cuvettes in Beckman Coulter (Brea, CA, USA) DU-7400/DU-7500 recording spectrophotometers equipped with electronic temperature controllers and warmed to 30 °C, and the assembly of tubulin was observed turbidimetrically. […] Inhibition of colchicine binding to tubulin was measured as described before, except that the reaction mixtures contained 0.5 μM tubulin and 5 μM each of [^3H]colchicine and test compound. Only one DEAE-cellulose filter was used per sample, and filtration was by gravity.
(§5) Bovine brain tubulin (see ref. [79] for details of purification) was used to examine effects on tubulin polymerization and colchicine binding. Briefly, in the polymerization experiments, different compound concentrations were preincubated with 10 µM tubulin for 15 min at 30 °C and cooled on ice. After GTP was added to each reaction mixture, the samples were transferred to 0 °C cuvettes in recording spectrophotometers with electronic temperature controllers. The temperature was raised to 30 °C over about 30 s, and turbidity development was followed for 20 min at 350 nm. […] In the current studies, [^3H]colchicine (from American Radiolabeled Corp., St. Louis, MO) binding was measured after 10 min at 37 °C. Reaction mixtures contained 0.5 µM tubulin and 5.0 µM each of the [^3H]colchicine and the potential inhibitor, and a single DEAE-cellulose filter was used for each sample, with gravity filtration.

[3] = test system: HeLa cells; test: Apoptosis assay, annexin-V-FITC/PI flow cytometry; assay type: cell-based, human
Protocol: The quantification of the apoptosis induced by the test compounds was carried out by flow cytometric analysis using the Annexin-V Fluos kit (Roche Diagnostics, Rotkreuz, Switzerland) following the manufacturer’s instructions. The HeLa cells treated with the test compounds for different incubation times and at the indicated concentrations were then labeled with annexin V/FITC and PI and analyzed with Coulter Cytomics FC500 (Beckman Coulter) in the FL1 and FL3 channel, respectively.

[4] = test system: Bovine brain tubulin; test: Inhibition of tubulin polymerization (turbidimetric assembly assay); assay type: biochemical
Protocol: as §4, §5

[5] = test system: MDA-MB-231; test: In vitro cell growth inhibition, resazurin viability assay; assay type: cell-based, human
Protocol: as §1, §2, §3

[6] = test system: A549; test: as above; assay type: cell-based, human
Protocol: as §1, §2, §3

[7] = test system: HeLa; test: as above; assay type: cell-based, human
Protocol: as §1, §2, §3

[8] = test system: HT29; test: as above; assay type: cell-based, human
Protocol: as §1, §2, §3

[9] = test system: HeLa cell xenograft; test: Zebrafish xenograft model with DiI-labeled HeLa cells; assay type: in vivo, Zebrafish (Danio rerio); conditions: 24 h treatment, 30 or 300 nM
Text: Prior to microinjections into Tg zebrafish embryos (fli1: EGFP), HeLa tumor cells were labeled with the VybrantTM DiI dye (Invitrogen, ThermoFisher, Carlsbad, CA, USA). The fluorescent cells were loaded into borosilicate glass capillary needles (OD/ID: 1.00/0.75 mm, World Precision Instruments (WPI, Friedberg, Germany) and injected (200 cells), through a pneumatic picopump, into the Cuvier duct of 48 hpf embryos previously anesthetized with tricaine (0.02%, Sigma-Aldrich, Milan, Italy).
After injection, the xenograft-harboring larvae were incubated to recover at 34° C in fish water containing phenylthiourea (PTU) to inhibit the pigmentation process. After 2 h from the injection, the embryos were examined to ensure homogeneity of the xenografts. For drug treatments, only successfully injected xenograft larvae were selected, with approximately 200 HeLa fluorescent cells scattered around the caudal area.
The injected xenografts were exposed to the doses of 3d used above with DMSO as control.
For cancer cell imaging and fluorescence quantification, anesthetized embryos were distributed to 96-well plates with one embryo/well. Initially (time 0 h, pre-treatment) and after one-day post-treatment, the tumors were photographed with a Zeiss AxioObserver microscope for live-cell imaging.

[10] = test system: HeLa cells; test: Mitochondrial potential, JC-1 flow cytometry; assay type: cell-based, human; conditions: 24 h treatment, increased further at 48 h
Protocol: The analysis of the mitochondrial potential was carried out by flow cytometric analysis. Briefly, the cells treated with the test compound were labeled with the JC-1 dye as previously described. The labeled cells were analyzed using the Coulter Cytomics FC500 (Beckman Coulter) in the FL1 and FL2 channel, respectively.

Compound: COc1cc(-c2ccnc3nc(Nc4ccc(C)cc4)nn23)cc(OC)c1OC [Compound 3d, N-(p-Tolyl)-7-(3,4,5-trimethoxyphenyl)-[1,2,4]triazolo[1,5-a]pyrimidin-2-amine]
- fold less active than 2a as antiproliferative agent ([1]; HeLa, HT-29 and A549 cells): 1-2 fold
- IC50 ([1]; in the four tumor cell lines examined, read-out: IC50s, range): 30 to 430 nM
- IC50 ([1]; on HeLa, A549 and HT-29 cancer cells, read-out: IC50 values, range): 30 to 43 nM
- fold more potent than the 7-(3′,4′,5′-trimethoxyanilino) counterpart ([1]; antiproliferative agent): 4–30 fold
- Colchicine Binding % Inhibition ± SD [2]: 72 ± 5%
- necrotic cells (A−/PI+) ([3]; 50 nM, long incubation times): about 25%
- induction of apoptosis ([3]; HeLa, 24 or 48 h): induced, in a concentration- and time-dependent manner, apoptosis
- fold more active than CA-4 as inhibitor of tubulin assembly [4]: 2 fold
- fold more potent than 2a as inhibitor of tubulin assembly [4]: ~2 fold
- IC50 ([4]; tubulin at 10 μM, 20 min incubation, read-out: Tubulin Assembly IC50 ± SD): 450 ± 100 nM
- IC50 ([5]; Homo sapiens, MDA-MB-231, 72 h, resazurin, mean ± SE): 0.43 ± 0.11 µM
- fold less potent than CA-4 ([5]; MDA-MB-231 cells): 100 fold
- fold more potent than CA-4 ([6]; A549 cells): 4 fold
- IC50 ([6]; Homo sapiens, A549, 72 h, resazurin, mean ± SE): 0.043 ± 0.024 µM
- fold less potent than CA-4 ([7]; HeLa cells): 10 fold
- IC50 ([7]; Homo sapiens, 72 h, resazurin, mean ± SE): 0.038 ± 0.009 µM
- fold greater activity than CA-4 ([8]; HT-29 cells): 100 fold
- IC50 ([8]; Homo sapiens, HT-29, 72 h, resazurin, mean ± SE): 0.03 ± 0.003 µM
- fluorescence intensity of tumor xenografts [9]: decreased in a dose-dependent manner, reaching statistical significance at 300 nM
- number of disseminated cancer cells [9]: significantly reduced the number of disseminated cancer cells
- mitochondrial depolarization (JC-1 monomers) [10]: significant increase in the percentage of monomers
